Earlier results on one compound are cited in patent publication US20170303537A1, “COMPOSITIONS OF A QUATERNARY AMMONIUM COMPOUND WITH A MONOCARBOXYLIC FATTY ACID” (OMS INVESTMENTS, INC., priority 2016, published 2017).

Regarding `CCCCCCCCC(=O)O` [pelargonic acid], the pKa entry is “about 5”.
